A short description of one data set: physchem. As to conditions: thermodynamic from solid.
The conditions of data set [1]: literature (López-Nicolás 2009); cited from earlier work.
The conditions of data set [2]: literature; cited from earlier work.
Data set [3] is described as follows: Solubility estimates at ambient temperature (gravimetric or incremental solvent addition). To be noted: thermodynamic from solid.

Values after ≈ are worked out from the molar mass of the structure shown. Bounds are passed on as bounds.

This passage reports solubility, Solubility in water and Bioavailability results from patent US9120766B2, “Methods of making cocrystals” (Aptuit (West Lafayette), LLC, priority 2011, dated 2015).

In general, solubility refers to the dissolved amount per volume that the medium holds.

`CC(=O)[C@H]1CC[C@H]2[C@@H]3CCC4=CC(=O)CC[C@]4(C)[C@H]3CC[C@]12C` [Progesterone, reference compound]: the solubility in “physchem” (organic solvent or mixture) was 30 mg/mL (≈ 95.4 mM).

`COc1cc(/C=C/c2ccc(O)cc2)cc(OC)c1` [Pterostilbene]: in data set [1], the Solubility in water result is listed as “poor solubility in water”. Besides, the Bioavailability result in data set [2] is “poor bioavailability”. Further, the solubility is more than 203 mg/mL in data set [3] (ACN, organic solvent or mixture, solvent ACN, ambient temperature); more than 201 mg/mL in data set [3] (EtOAc, organic solvent or mixture, solvent EtOAc, ambient temperature); 410 mg/mL (≈ 1600 mM) in data set [3] (EtOH, organic solvent or mixture, solvent EtOH, ambient temperature); more than 200 mg/mL in data set [3] (MEK, organic solvent or mixture, solvent MEK, ambient temperature (Table 1)); more than 200 mg/mL in data set [3] (MTBE, organic solvent or mixture, solvent MTBE, ambient temperature); less than 2 mg/mL in data set [3] (heptane, organic solvent or mixture, solvent Heptane, ambient temperature). In addition, the solubility in data set [3] (isopropanol/water with water content 70% and higher, aqueous with cosolvent or surfactant or cyclodextrin) is not above 2 mg/mL; in data set [3] (isopropanol:water 40:60, aqueous with cosolvent or surfactant or cyclodextrin, 40:60 isopropanol to water mixture), approximately 22 mg/mL (≈ 85.8 mM); in data set [3] (isopropyl alcohol (IPA), organic solvent or mixture, solvent IPA (isopropyl alcohol), ambient temperature), 399 mg/mL (≈ 1560 mM); in data set [3] (water, solvent Water, ambient temperature), 0.02 mg/mL (≈ 0.078 mM); in data set [3] (water:IPA 55:45, aqueous with cosolvent or surfactant or cyclodextrin, solvent Water:IPA 55:45, ambient temperature) it was 22 mg/mL (≈ 85.8 mM); in data set [3] (water:IPA 60:40, aqueous with cosolvent or surfactant or cyclodextrin, solvent Water:IPA 60:40, ambient temperature), 22 mg/mL (≈ 85.8 mM). The solubility in data set [3] (water:IPA 70:30, aqueous with cosolvent or surfactant or cyclodextrin, solvent Water:IPA 70:30, ambient temperature) is 2 mg/mL (≈ 7.8 mM); in data set [3] (water:ethanol 50:50 v/v, aqueous with cosolvent or surfactant or cyclodextrin, solvent system Water:ethanol 50:50 v/v, ambient temperature), 54 mg/mL (≈ 211 mM).

On to `NC(=O)c1cccnc1` [nicotinamide], for which, in the data set “physchem” (organic solvent or mixture), the solubility stood at 42 mg/mL (≈ 344 mM).

In the data set “physchem” (aqueous with cosolvent or surfactant or cyclodextrin), `C1CNCCN1` [piperazine] came in with a solubility of more than 324 mg/mL.
